The results in this text go back to ChEMBL document CHEMBL1208736, “Synthesis of highly functionalized 2,4-diaminoquinazolines as anticancer and anti-HIV agents” (Bioorg Med Chem Lett, 2010).

The subject of one data set is HepG2. Briefly: Cytotoxicity against human HepG2 cells by MTT assay. It counts as functional, cell-based.
The next data set concerns A-431. Briefly: Cytotoxicity against human A431 cells by MTT assay. Format: functional, cell-based. (Tetrazolium assays rely on reduction of a dye to a coloured formazan, in cell work by metabolically active cells.)
Another data set concerns HL-60. Briefly: Cytotoxicity against human HL60 cells by MTT assay. It counts as functional, cell-based.
The subject of the next data set is A549. Briefly: Cytotoxicity against human A549 cells by MTT assay. It counts as functional, cell-based.
Data set [1] can be described thus: Cytotoxicity against human C8166 cells after 3 days by MTT assay. It counts as cell-based.
The test system of data set [2] is Human immunodeficiency virus 1. Briefly: Antiviral activity against HIV1 3B infected in human C8166 cells assessed as inhibition of viral replication. The note with it: Human immunodeficiency virus 1, 3B. It counts as functional, organism-based.
The test system of another data set is SK-OV-3. Briefly: Cytotoxicity against human SKOV3 cells by MTT assay. Format: functional, cell-based.
Data set [3] in a line: Therapeutic index, ratio of CC50 for human C8166 cells to EC50 for HIV1 3B. It counts as cell-based. The note with it: read-out: Ratio CC50/EC50.

In brackets after ≈: the same amount, converted by molar mass.

As to `N#Cc1c(Nc2ccccc2)c(F)c2nc(N)nc(N)c2c1F`, the IC50 with HepG2 is 1.4 µg/mL (≈ 4.48 µM); with A-431 it was 7 µg/mL (≈ 22.4 µM); in the data set with HL-60 it was 40 µg/mL (≈ 128 µM); in the data set with A549 it was greater than 1000 µg/mL; in the data set with SK-OV-3, 6.5 µg/mL (≈ 20.8 µM). This molecule yielded a half-maximal cytotoxic concentration (CC50) at 72 h in data set [1] of 6.9 µg/mL (≈ 22.1 µM). Further, in data set [2], the EC50 was 0.2 µg/mL (≈ 0.64 µM). Also, the selectivity ratio in data set [3] was 16.3.
In the case of `CC(C)(C)Nc1c(C#N)c(F)c2c(N)nc(N)nc2c1F`, the 50% inhibitory concentration (IC50) in the data set with HepG2 was 16.2 µg/mL (≈ 55.4 µM); in the data set with A-431, 11.9 µg/mL (≈ 40.7 µM); with HL-60 it was 18 µg/mL (≈ 61.6 µM); in the data set on A549, greater than 1000 µg/mL; in the data set on SK-OV-3, 2.4 µg/mL (≈ 8.21 µM).
For `CC(C)(C)Nc1c(C#N)c(F)c2c(N)nc(N)nc2c1Cl`, the IC50 in the data set on HepG2 is 5.4 µg/mL (≈ 17.5 µM); in the data set with A-431 it was 6.5 µg/mL (≈ 21.1 µM); in the data set on HL-60, 5.2 µg/mL (≈ 16.8 µM); in the data set with A549, 313 µg/mL (≈ 1010 µM); with SK-OV-3 it was 2.1 µg/mL (≈ 6.8 µM).
As to `N#Cc1c(NCc2ccccc2)c(F)c2nc(N)nc(N)c2c1F`, the IC50 in the data set with HepG2 was 27.8 µg/mL (≈ 85.2 µM); in the data set on A-431, 12.9 µg/mL (≈ 39.5 µM); in the data set with HL-60, 14 µg/mL (≈ 42.9 µM); with A549 it was greater than 1000 µg/mL; in the data set with SK-OV-3 it was 11 µg/mL (≈ 33.7 µM).
Consider `CCCSc1c(C#N)c(SCCC)c2c(N)nc(N)nc2c1Cl`, for which the IC50 with HepG2 was greater than 1000 µg/mL; in the data set on A-431, 535 µg/mL (≈ 1450 µM); in the data set on HL-60, 7.7 µg/mL (≈ 20.9 µM); with A549, greater than 1000 µg/mL; in the data set on SK-OV-3, 1.2 µg/mL (≈ 3.26 µM). In data set [1], the CC50 at 72 h was greater than 200 µg/mL. For the same molecule, the EC50 in data set [2] turned out to be 13.3 µg/mL (≈ 36.1 µM). Besides, the selectivity ratio in data set [3] turned out to be 11.5.
`CCCCNc1c(C#N)c(NCCCC)c2c(N)nc(N)nc2c1Cl`: the IC50 in the data set with HepG2 was 1.3 µg/mL (≈ 3.59 µM); in the data set on A-431 it was 2.5 µg/mL (≈ 6.91 µM); with HL-60 it was 0.7 µg/mL (≈ 1.93 µM); with A549, 2 µg/mL (≈ 5.53 µM); with SK-OV-3, 0.6 µg/mL (≈ 1.66 µM).
In the case of `N#Cc1c(Sc2ccccc2)c(Cl)c2nc(N)nc(N)c2c1Sc1ccccc1`, the 50% inhibitory concentration (IC50) with HepG2 was 5 µg/mL (≈ 11.5 µM); in the data set on A-431, 32.4 µg/mL (≈ 74.3 µM); in the data set on HL-60 it was 26 µg/mL (≈ 59.6 µM); in the data set on A549 it was greater than 1000 µg/mL; in the data set with SK-OV-3 it was 9.4 µg/mL (≈ 21.6 µM). In addition, in data set [1], it took 46.8 µg/mL (≈ 107 µM) to reach half-maximal cytotoxicity (CC50 at 72 h). Besides, the EC50 in data set [2] was 3.2 µg/mL (≈ 7.34 µM). The selectivity ratio in data set [3] amounted to 10.6.
For the molecule `N#Cc1c(Cl)c(Cl)c2nc(N)nc(N)c2c1Cl`, the IC50 in the data set with HepG2 is 2.5 µg/mL (≈ 8.66 µM); with A-431 it was 3.3 µg/mL (≈ 11.4 µM); in the data set with HL-60, 19 µg/mL (≈ 65.9 µM); in the data set on A549, 29.7 µg/mL (≈ 103 µM); in the data set on SK-OV-3 it was 1.3 µg/mL (≈ 4.51 µM). The midpoint of cytotoxicity in data set [1], the CC50 at 72 h, lay at 14.3 µg/mL (≈ 49.6 µM). The EC50 in data set [2] came out at 1 µg/mL (≈ 3.47 µM). The selectivity ratio in data set [3] amounted to 8.
As for `N#Cc1c(NCc2ccccc2)c(Cl)c2nc(N)nc(N)c2c1NCc1ccccc1`, the IC50 in the data set with HepG2 is 19.2 µg/mL (≈ 44.7 µM); in the data set on A-431, 716 µg/mL (≈ 1670 µM); in the data set on HL-60, 8.5 µg/mL (≈ 19.8 µM); in the data set with A549, greater than 1000 µg/mL; with SK-OV-3, 3.7 µg/mL (≈ 8.61 µM).
Take `CCN(CC)c1c(C#N)c(F)c2c(N)nc(N)nc2c1Cl`: the IC50 in the data set on HepG2 stood at 2 µg/mL (≈ 6.48 µM); in the data set on A-431 it was 7.3 µg/mL (≈ 23.6 µM); with HL-60 it was 2.3 µg/mL (≈ 7.45 µM); in the data set on A549, 7.1 µg/mL (≈ 23 µM); in the data set on SK-OV-3 it was 0.4 µg/mL (≈ 1.3 µM).
In the case of `N#Cc1c(N)c(Cl)c2nc(N)nc(N)c2c1Cl`, the IC50 in the data set on HepG2 came to 3.7 µg/mL (≈ 13.7 µM); in the data set on A-431, 9.5 µg/mL (≈ 35.3 µM); in the data set with HL-60 it was 6.7 µg/mL (≈ 24.9 µM); with A549, 188 µg/mL (≈ 699 µM); in the data set on SK-OV-3 it was 0.8 µg/mL (≈ 2.97 µM).
On to `CCN(CC)c1c(C#N)c(F)c2c(N)nc(N)nc2c1F`, for which the IC50 in the data set with HepG2 was determined as 1.3 µg/mL (≈ 4.45 µM); in the data set on A-431, 16.4 µg/mL (≈ 56.1 µM); in the data set with HL-60, 6.4 µg/mL (≈ 21.9 µM); with A549, 26.5 µg/mL (≈ 90.7 µM); in the data set on SK-OV-3, 1 µg/mL (≈ 3.42 µM).
With `Cc1cn([C@H]2C[C@H](N=[N+]=[N-])[C@@H](CO)O2)c(=O)[nH]c1=O` [ZIDOVUDINE], the EC50 in data set [2] turned out to be 0.004 µg/mL (≈ 0.015 µM). For the same molecule, the selectivity ratio in data set [3] came out at 286000.
In the case of `N#Cc1c(OCc2ccccc2)c(F)c2nc(N)nc(N)c2c1OCc1ccccc1`, the IC50 was 84 µg/mL (≈ 202 µM) in the data set with HepG2; 68.3 µg/mL (≈ 164 µM) in the data set with A-431; 62 µg/mL (≈ 149 µM) in the data set with HL-60; greater than 1000 µg/mL in the data set on A549; 14 µg/mL (≈ 33.7 µM) in the data set with SK-OV-3.
For `N#Cc1c(Oc2ccccc2)c(Cl)c2nc(N)nc(N)c2c1Oc1ccccc1`, the IC50 is greater than 1000 µg/mL in the data set with HepG2; greater than 1000 µg/mL with A-431; 88 µg/mL (≈ 218 µM) with HL-60; greater than 1000 µg/mL in the data set on A549; 14 µg/mL (≈ 34.7 µM) in the data set on SK-OV-3.
Regarding `N#Cc1c(Nc2ccc(Cl)cc2)c(F)c2nc(N)nc(N)c2c1F`, the half-inhibitory concentration (IC50) in the data set with HepG2 is 1 µg/mL (≈ 2.88 µM); in the data set with A-431, 4.5 µg/mL (≈ 13 µM); in the data set with HL-60, 35 µg/mL (≈ 101 µM); in the data set with A549, 115 µg/mL (≈ 332 µM); in the data set on SK-OV-3, 4.8 µg/mL (≈ 13.8 µM).
Consider `N#Cc1c(F)c(F)c2nc(N)nc(N)c2c1F`, for which the IC50 was 5 µg/mL (≈ 20.9 µM) in the data set with HepG2; 105 µg/mL (≈ 439 µM) in the data set on A-431; 51 µg/mL (≈ 213 µM) with HL-60; greater than 1000 µg/mL in the data set on A549; 8 µg/mL (≈ 33.5 µM) in the data set on SK-OV-3. Also, it took 36.4 µg/mL (≈ 152 µM) to reach half-maximal cytotoxicity in data set [1] (CC50 at 72 h). Also, in data set [2], the EC50 worked out at 0.6 µg/mL (≈ 2.51 µM). In addition, in data set [3], the selectivity ratio is 59.6.
Consider `COc1ccc(Nc2c(C#N)c(F)c3c(N)nc(N)nc3c2Cl)cc1`, for which the IC50 in the data set on HepG2 is 10.2 µg/mL (≈ 28.4 µM); in the data set with A-431, 5.1 µg/mL (≈ 14.2 µM); in the data set with HL-60, 2.2 µg/mL (≈ 6.13 µM); in the data set on A549, 103 µg/mL (≈ 287 µM); with SK-OV-3, 1.6 µg/mL (≈ 4.46 µM).
On the same counts, the results for `CCCCNc1c(C#N)c(NCCCC)c2c(N)nc(N)nc2c1F` are 2.6 µg/mL (≈ 7.53 µM), 1 µg/mL (≈ 2.89 µM), 1.4 µg/mL (≈ 4.05 µM), greater than 1000 µg/mL and 1.6 µg/mL (≈ 4.63 µM).
For the molecule `N#Cc1c(NCc2ccccc2)c(Cl)c2nc(N)nc(N)c2c1F`, the IC50 in the data set with HepG2 amounted to 1.4 µg/mL (≈ 4.08 µM); in the data set on A-431, 1.4 µg/mL (≈ 4.08 µM); in the data set with HL-60, 0.3 µg/mL (≈ 0.875 µM); with A549, 34.1 µg/mL (≈ 99.5 µM); in the data set on SK-OV-3, 0.8 µg/mL (≈ 2.33 µM).
Regarding `N#Cc1c(NCc2ccccc2)c(F)c2nc(N)nc(N)c2c1NCc1ccccc1`, the IC50 was found to be 13.4 µg/mL (≈ 32.4 µM) with HepG2; 20.7 µg/mL (≈ 50.1 µM) in the data set with A-431; 7.2 µg/mL (≈ 17.4 µM) in the data set on HL-60; 13.9 µg/mL (≈ 33.6 µM) with A549; 2.5 µg/mL (≈ 6.05 µM) in the data set on SK-OV-3.
Turning to `N#Cc1c(Nc2ccccc2)c(Cl)c2nc(N)nc(N)c2c1F`, the IC50 was 5.9 µg/mL (≈ 17.9 µM) with HepG2; 4.8 µg/mL (≈ 14.6 µM) in the data set with A-431; 47 µg/mL (≈ 143 µM) in the data set on HL-60; greater than 1000 µg/mL in the data set on A549; 3.7 µg/mL (≈ 11.3 µM) with SK-OV-3. This molecule had a CC50 at 72 h in data set [1] of 6.3 µg/mL (≈ 19.2 µM). Further, the EC50 in data set [2] turned out to be 0.4 µg/mL (≈ 1.22 µM). Further, in data set [3], the selectivity ratio is 13.5.
Regarding `N#Cc1c(F)c(Cl)c2nc(N)nc(N)c2c1F`, the IC50 with HepG2 is 4.8 µg/mL (≈ 18.8 µM); in the data set with A-431, 1.5 µg/mL (≈ 5.87 µM); in the data set on HL-60 it was 0.04 µg/mL (≈ 0.156 µM); in the data set with A549 it was 30.8 µg/mL (≈ 120 µM); in the data set with SK-OV-3, 0.14 µg/mL (≈ 0.548 µM). Besides, the midpoint of cytotoxicity in data set [1], the CC50 at 72 h, lay at 3.9 µg/mL (≈ 15.3 µM). Moreover, in data set [2], the EC50 stood at 0.1 µg/mL (≈ 0.391 µM). For the same molecule, the selectivity ratio in data set [3] was found to be 7.

Usually IC50 stands for the concentration at which inhibition is half-maximal. The low end stands for greater potency in that assay, the high end for weaker potency in that assay. What is called CC50 is the concentration giving 50% cytotoxicity. Higher therefore signals better tolerance by the cells. Broadly, the EC50 is the concentration at which the effect is half-maximal.
